Results: patent US7666644B2, “Glyphosate-N-acetyltransferase (GAT) genes” (Verdia, Inc., priority 2004, dated 2010)
Changes are numbered by the printed parent chain.

Legend:
[1] = molecular target: T1, Bacillus licheniformis strain B6 glyphosate-N-acetyltransferase (GAT), native, SEQ ID NO:7 (Bacillus paralicheniformis, UniProt A0AAW6KBE1); test: Apparent KM and kcat of purified GAT (Example 2); assay type: biochemical; conditions: read-out: KM for Acetyl CoA; apparent; 5 mM glyphosate, 5 mM morpholine pH 7.7, 50% methanol; MS detection
T1 construct: untagged
Description: Lysis of the cells was effected by the addition of 1 ml of the following buffer to 0.2 g of cells: 25 mM HEPES, pH 7.3, 100 mM KCl and 10% methanol (HKM) plus 0.1 mM EDTA, 1 mM DTT, 1 mg/ml chicken egg lysozyme, and a protease inhibitor cocktail obtained from Sigma and used according to the manufacturer's recommendations. After 20 minutes incubation at room temperature (e.g., 22-25° C.), lysis was completed with brief sonication. The lysate was centrifuged and the supernatant was desalted by passage through Sephadex G25 equilibrated with HKM. Partial purification was obtained by affinity chromatography on CoA Agarose (Sigma). The column was equilibrated with HKM and the clarified extract was allowed to pass through under hydrostatic pressure.
Purification to homogeneity was obtained by gel filtration of the partially purified protein through Superdex 75 (Pharmacia).
Initial reaction rates were determined using mass spectrometric detection of N-acetyl glyphosate. Five μl were repeatedly injected into the instrument and reaction rates were obtained by plotting reaction time vs area of the integrated peak (FIG. 6).

[2] = system: native or low activity GAT enzymes (glyphosate-N-acetyltransferase); test: Kinetics typical of native or low activity GAT enzymes (Example 4); assay type: biochemical; conditions: read-out: KM for acetyl CoA
[3] = system: soybeans expressing GAT and HRA transgenes; test: T1 pre-emergence sulfonamide spray of soybeans expressing GAT and HRA transgenes; assay type: in vivo, soybean; design: key: 9=no leaf/stem discoloration; 7=minor leaf/stem discoloration; 5=worse leaf/stem discoloration; 3=severely discolored plant or dying plant; 1=dead plant; conditions: 70 gms a.i./hectare, 10 days post spray, all HRA and GAT events
Description: T1 seed generated from experiments as described in Example 17, were planted in pots of Tama Silt loam in the greenhouse. Pots were immediately sprayed with a pre-emergence application of chlorimuron, rimsulfuron or tribenuron at a rate of 70 gms a.i./hectare. Germinating plants were evaluated 10 days post spray application based on plant discoloration scores described in Example 17. All HRA and GAT events survived all pre-emergence spray applications with a rating of 9 (uninjured).

[4] = system: soybeans expressing GAT and HRA transgenes; test: T1 post-emergence sulfonamide spray of soybeans expressing GAT and HRA transgenes; assay type: in vivo, soybean; conditions: GAT (SEQ ID NO: 824)/SAMS promoter-HRA events
Description: T1 seed generated from experiments as described in Example 17 were germinated in RediEarth^R 360 medium in the greenhouse. Plants were sprayed at the V2-V3 stage (14 days after potting) with thifensulfuron, chlorimuron, rimsulfuron or tribenuron (70, 70, 35, 35 gm a.i./hectare, respectively). Plants were evaluated 10 days post application based on plant discoloration scores described in Example 17.
Events having a plant discoloration rating 7 or 8 after thifensulfuron spray were sprayed with either a 2× or 4× application of glyphosate after 10 days as per methods described in Example 17. Events were evaluated based on discoloration scores described in Example 17. All thifensulfuron tolerant events survived the glyphosate spray with score of 7 or 8 (results not shown).

[5] = system: tobacco plants; test: Herbicide spray tests of GAT expressing tobacco plants; assay type: in vivo, Nicotiana tabacum
Description: Tobacco shoots generated as described in EXAMPLE 9 were excised from the explants and transferred to basal root induction (BRI) medium composed of half-strength Murashige and Skoog (MS) medium, pH 5.7, with 1.5% sucrose, 0.3% Gelrite, 0-200 uM glyphosate and 400 ug/ml Timentin. Rooted plants and axillary shoots were clonally propagated by cutting the stem and transferring it to fresh BRI medium until the desired number of clones was obtained. Rooted plants were carefully removed from the solid medium. Prior to placing the plants into small pots of soil, the roots were washed to remove any remaining Gelrite. A protective plastic cover was kept over the plants for at least one week until the plants were well established.
To determine if GAT expressing tobacco plants could tolerate simulated field rate sprays of glyphosate, clonal lines of several events per GAT variant were tested. A typical test was set up as follows: One clone from each event was sprayed with 1 ml of solution containing the isopropylamine salt of glyphosate (Sigma P5671) and 0.125% Triton X-100, pH 6.8 such that the amount of active ingredient sprayed was equivalent to that present in commercial glyphosate products. For example, to achieve 32 oz/acre (1×) of herbicide containing 40% active ingredient (“ai”), 2.4 ul of 40% ai formulation was diluted into 1 ml water and sprayed on a plant in a 4-inch square pot (16 in^2). A mock application (0×) with surfactant only was also included. In some cases a second spray was applied 1-4 weeks later. Plants were kept in controlled growth rooms at 25° C. and 70% humidity with 16 hr light.
Seed-grown wild type plants were also sprayed. […] All 0× plants were healthy, including the non-GAT control plants. Three weeks later all of the surviving plants were sprayed with an 8× dose.

[6] = Transfer of the propionyl group from propionyl CoA to glyphosate, DTNB detection; assay type: biochemical; conditions: 1 mM propionyl CoA, 5 mM glyphosate or no glyphosate, 30 minutes
Description: The ability of GAT variants (B6 (SEQ ID NO:7), 0—6D10 (SEQ ID NO:448), 17-15H3 (SEQ ID NO:601), and 20-8H12c (SEQ ID NO:817)) to transfer the propionyl group from propionyl CoA to glyphosate was tested in reaction mixtures containing 5 mM glyphosate or no glyphosate. Propionyl CoA was present at 1 mM. After 30 minutes the reactions were terminated and the presence of free […] was determined by the addition of DTNB.

[7] = system: maize plants; test: Effect of temperature variation on glyphosate tolerance of T1 maize expressing GAT transgenes; assay type: in vivo; conditions: cool/cold, warm and hot conditions, 0×, 4×, 6×, 8× glyphosate at V2, scored 5 and 14 days
Description: Maize plants expressing GAT variant transgenes 10—4F2 (SEQ ID NO:203), 17-15H3 (SEQ ID NO:549), and 18-28D9b (SEQ ID NO:814) were produced using the methods described in Example 13. The effect of temperature on glyphosate tolerance was evaluated in T1 plants. The T1 plants were grown in cool/cold (day 14° C., night 8° C.), warm (day 28° C., night 20° C.), and hot (day 37° C., night 20° C.) conditions. T1 plants were sprayed at V2 with four different glyphosate spray treatments (0×, 4×, 6×, and 8×). Plants were scored at 5 and 14 days after treatment for leaf discoloration and plant height comparisons as described in Example 13.

[8] = Kinetics of GAT variants modified next to the initiating methionine; assay type: biochemical
Source text: A second way to increase plant expression of microbial genes is to increase the G+C content near the initiating methionine residue. Naturally-occurring coding sequences in plants tend to contain two or three G and/or C residues immediately downstream of the ATG initiation codon (Joshi et al. (1997) Plant Mol. Biol. 35:993-1001). Introducing into the gat coding sequence one or two CG-rich codons immediately downstream of the ATG intitiation codon may create a more plant-like coding sequence and thus may enhance its expression in plants.

[9] = 35 gm a.i./ha post-emergence at V2-V3, 10 days after treatment
[10] = 70 gm a.i./ha post-emergence at V2-V3, 10 days after treatment

CC(=O)SCCNC(=O)CCNC(=O)[C@H](O)C(C)(C)COP(=O)(O)OP(=O)(O)OC[C@H]1O[C@@H](n2cnc3c(N)ncnc32)[C@H](O)[C@@H]1OP(=O)(O)O [acetyl CoA]
Km [1]: 2 µM | Km [2]: < 25 µM

COc1nc(C)nc(N(C)C(=O)NS(=O)(=O)c2ccccc2C(=O)O)n1 [Tribenuron]
plant discoloration rating [3]: 9 | Average Resistance scores [4, 9]: 3.83

CCS(=O)(=O)c1cccnc1S(=O)(=O)NC(=O)Nc1nc(OC)cc(OC)n1 [Rimsulfuron]
plant discoloration rating [3]: 9 | Average Resistance scores [4, 9]: 2.21

COc1cc(Cl)nc(NC(=O)NS(=O)(=O)c2ccccc2C(=O)O)n1 [Chlorimuron]
plant discoloration rating [3]: 9 | Average Resistance scores [4, 10]: 7.75

COc1nc(C)nc(NC(=O)NS(=O)(=O)c2ccsc2C(=O)O)n1 [Thifensulfuron]
Average Resistance scores [4, 10]: 7.81

B1: 0—6D10: evolved GAT; gene SEQ ID NO:196, enzyme SEQ ID NO:448 (protein)
chain: MLEVKPINAEDTYELRHKILRPNQPLEVCMYETDLLRGAFHLGGFYRGKLISIASFHQAEHSDLQGQKQYQLRGMATLEGYRDQKAGSSLIRHAEQILRKRGADMLWCNARTSASGYYKKLGFSEQGEVFETPPVGPHILMYKRLT
modifications: 0_6D10
outcome two weeks after glyphosate spray ([5]; 0.5, 2 or 4× glyphosate (1× = 32 oz/acre of 40% ai), clonally propagated events, average of 5 leaves): survived the spraying procedure without signs of glyphosate damage | outcome after second spray with an 8× dose ([5]; 8× glyphosate three weeks later): survived | glyphosate-dependent hydrolysis of propionyl CoA [6]: showed glyphosate-dependent hydrolysis of propionyl CoA

B2: 10—4F2: evolved GAT; enzyme SEQ ID NO:454, transgene printed as SEQ ID NO:203 (protein)
chain: B1 chain with K18R, L26I, V28A, Y31F, T33S, D63E, D83E, Q96E, V129I
modifications: 10_4F2
effect of growth temperature on glyphosate tolerance [7]: not adversely effected

B3: 18-28D9b: GAT variant transgene, SEQ ID NO:814 (nucleic acid)
DNA: ATGATAGAGGTGAAACCGATTAACGCAGAGGATACCTATGAACTAAGGCATAGAATACTCAGACCAAACCAGCCGATAGAAGCGTGTATGTTTGAAAGCGATTTACTTCGTGGTGCATTTCACTTAGGCGGCTTTTACAGGGGCAAACTGATTTCCATAGCTTCATTCCACCAGGCCGAGCACTCGGAACTCCAAGGCCAGAAACAGTACCAGCTCCGAGGTATGGCTACCTTGGAAGGTTATCGTGAGCAGAAAGCGGGATCAACTCTAGTTAAACACGCTGAAGAAATCCTTCGTAAGAGGGGGGCGGACATGCTTTGGTGTAATGCGCGGACATCCGCCTCAGGCTACTACAAAAAGTTAGGCTTCAGCGAGCAGGGAGAGATATTTGACACGCCGCCAGTAGGACCTCACATCCTGATGTATAAAAGGATCACATAA
modifications: Synthetic nucleic acid sequence; CDS (1)...(441); 18-28D9b
effect of growth temperature on glyphosate tolerance [7]: not adversely effected

B4: 20-8H12c: GAT variant, SEQ ID NO:817 (protein)
chain: MIEVKPINAEDTYELRHRVLRPNQPIEACIFESDLMRGAFHLGGFYGGRLISVASFHQAEHSELQGQKQYQLRGMATLEGYREQKAGSSLVKHAEEILRKRGADLLWCNARTSASGYYKKLGFSEQGEVFDTPPVGPHILMYKRIT
modifications: 20-8H12c
glyphosate-dependent hydrolysis of propionyl CoA [6]: showed glyphosate-dependent hydrolysis of propionyl CoA

B5: 22-15B4 M1MA: 22-15B4 with one alanine inserted between Met1 and Ile2, SEQ ID NO:946 (protein)
chain: MAIEVKPINAEDTYDLRHRVLRPNQPIEACMFDSDLMRSAFHLGGFYGGKLISVASFHQAEHTELQGQKQYQLRGVATLEGYREQKAGSSLVKHAEEILRKRGVDLLWCNARTSASGYYKKLGFSEQGEVFDTPPVGPHILMYKRIT
modifications: 22-15B4 M1MA
kinetics compared to the unmodified enzyme [8]: essentially unaltered kinetics

B6: 22-15B4 M1MAA: 22-15B4 with two alanines inserted between Met1 and Ile2, SEQ ID NO:948 (protein)
chain: MAAIEVKPINAEDTYDLRHRVLRPNQPIEACMFDSDLMRSAFHLGGFYGGKLISVASFHQAEHTELQGQKQYQLRGVATLEGYREQKAGSSLVKHAEEILRKRGVDLLWCNARTSASGYYKKLGFSEQGEVFDTPPVGPHILMYKRIT
modifications: 22-15B4 M1MAA
kinetics compared to the unmodified enzyme [8]: reduced kcat
